Measured values from patent US20220381657A1, “METHOD FOR PREPARING BIOLOGICAL MATERIAL HAVING EXCELLENT LIGHT-TRANSMITTING PROPERTY” (RIKEN, priority 2016, published 2022).
Counter-ions that a name gives are not always drawn. Like-named read-outs stand apart in the source and are kept apart here.

Experiments:
[1] = test system: fixed brain tissue suspension; assay: 1st delipidation assay: solubilization of fixed brain tissue suspension, turbidity at 600 nm; set-up: species or system mice; settings: Table 1; 10 wt % chemical, fixed mouse brain suspension, 37° C. overnight; PBS = 1.000
Procedure: Specifically, brains taken out of mice were sheared with a utility knife and then were disrupted by ultrasonication. To each of the resultant suspensions, an equal volume of 8% PFA solution was added to perform fixation at 4° C. for 1 hour. The resultant mixture was centrifuged to remove the supernatant, and the fixed brain tissue was washed with PBS for 3 times. PBS was added so as to obtain 2 mL of a fixed brain tissue suspension per brain. The fixed brain tissue suspension was diluted by 3.5 folds. To 20 μL of the resultant suspension, 130 μL of each 10 wt % chemical was added and was shaken at 37° C. overnight. Thus obtained mixed solutions were subjected to absorbance (turbidity) measurement at 600 nm. It is expected that a chemical solution which reduces the turbidity of a fixed brain suspension allows reducing light scattering by solubilizing lipids, which act as a scattering factor, in the brain tissue.

bovine coagulated blood = assay: Decoloring screening: heme eluted from bovine coagulated blood (OD420-OD700); settings: decolorization; for 700 nm calibrated 420 nm Average: OD420 calibrated by OD700; for integrated value 500-700 nm Average: integrated absorbance 500-700 nm
Procedure: A high-throughput screening system for evaluating the decoloring ability of various compounds was constructed. The screening system involved adding an aqueous solution of each compound to bovine coagulated blood and then measuring the absorbance of heme collected in the supernatant.
Specifically, to bovine blood, an equal amount of 8% PFA solution was added, and reacted at 4° C. overnight. The mixed liquid was centrifuged at 1500×g for 5 minutes, and the supernatant containing PFA was discarded. Then, the same amount of PBS as the original volume of blood was added to prepare a coagulated blood sample. To 150 μL of 10 wt % aqueous solution of each compound, 50 μL of the coagulated blood sample was added, and reacted at 37° C. overnight. The reaction solution was centrifuged at 1500×g for 5 minutes, and then 100 μL of the supernatant was added to a plate so as to be subjected to absorbance measurement. A sample which is suspended in water instead of being dissolved in the water has a weak decoloring effect, but none the less has a high absorbance value. […]

[2] = for 400 nm: OD at 400 nm of the chemical
[3] = Refractive index of high-concentration aqueous solution; format: physicochemical
From the text: The refractive index of an aqueous solution is commonly known to increase in a solute concentration-dependent manner, and the refractive index of a reagent per unit weight of the reagent varies among individual reagents. Accordingly, two properties are required in order to prepare a high refractive index aqueous solution: (1) an extremely high water-solubility and (2) a […] which allows achieving a high refractive index in a low-concentration aqueous solution.

EGFP = EGFP (Aequorea victoria, UniProt P42212, F64L/H231L/S65T); format: biochemical; settings: for retention of fluorescence of a fluorescent protein: stated in the description; for 2nd quenching assay EGFP fluorescence: Table 3
Procedure: (FIG. 7). […] A mouse hemisphere was treated with use of each 10 wt % chemical solution at 37° C. for 3 days, and was washed with PBS. Subsequently, the mouse hemisphere was subjected to refractive index adjustment with CUBIC-2A.

[4] = Table 3, chemical conc. 70 wt %
[5] = Table 3, chemical conc. 80 wt %

Compound | 1st delipidation assay Relative OD600 [1] | 700 nm calibrated 420 nm Average (bovine coagulated blood) | integrated value 500-700 nm Average (bovine coagulated blood) | pH (Table 1) | pH ([…]) | 400 nm [2] | OD400 ([2]; Table 1) | Fluorescence quench Average (Serius; relative fluorescence) | RI [3, 4] | pH (Table 3) | OD400 ([2]; Table 3) | also measured
Tween ® 40 [#1455] | 0.073 | 1.38 | 1.21 | 6.4 | 6.4 | 0.083 | 0.083 | 0.64 |  |  |  | 
CN(C)CCOC(c1ccccc1)c1ccccc1.Cl [#0809, Diphen- hydramine hydrochloride] |  |  |  |  |  |  |  |  | 1.4990 |  |  | 
CC1(C)CC(N)CC(C)(CN)C1 (stereo not drawn) [#1602, Isophoronediamine] | 0.190 | 2.08 | 1.26 | 10.8 | 10.8 | 0.051 | 0.051 | 0.53 |  |  |  | 
Cc1cccc(C)n1 [#1008, 2,6-Lutidine] | 0.314 | 2.00 | 2.16 | 9.9 | 9.9 | 0.063 | 0.063 | 0.71 |  |  |  | 
Cc1cccc[n+]1[O-] [#1140, 2-Methyl-pyridine N-oxide] |  |  |  |  |  |  |  |  | 1.4919 | 6.2 | 0.049 | 
C[C@H](CCC(=O)[O-])[C@H]1CC[C@H]2[C@@H]3CC[C@@H]4C[C@H](O)CC[C@]4(C)[C@H]3C[C@H](O)[C@]12C.[Na+] [#0562, Sodium deoxycholate] | 0.170 | 1.18 | 0.98 | 8.3 | 8.3 | 0.054 | 0.054 | 1.08 |  |  |  | 
Cc1ccnc(C)c1 [#1312, 2,4-Lutidine] | 0.325 | 2.47 | 2.59 | 7.6 | 7.6 | 0.051 | 0.051 | 0.84 |  |  |  | 
CCCCCCCCCCCC[n+]1ccccc1.[Cl-] [#0635, 1-Dodecylpyridinium chloride] |  | 3.86 | 3.57 | 8.9 | 8.9 | 0.053 | 0.053 | 1.04 |  |  |  | retention of fluorescence of a fluorescent protein (EGFP): allows fluorescence of a fluorescent protein to be retained
C[N+](C)(Cc1ccccc1)c1ccccc1.[Cl-] [#0450, Benzyl- dimethyl- phenyl- ammonium chloride] |  |  |  |  |  |  |  |  | 1.5002 | 6.7 | 0.052 | 2nd quenching assay EGFP fluorescence (EGFP): quench free; retention of fluorescence of a fluorescent protein (EGFP): allowing retention of fluorescence of a fluorescent protein
NCCCn1ccnc1 [#0484, 1-(3-aminopropyl)imidazole] |  | 4.81 | 2.64 |  | 12.9 | 0.05 |  | 0.72 |  |  |  | retention of fluorescence of a fluorescent protein (EGFP): allows fluorescence of a fluorescent protein to be retained
Cc1cc[n+]([O-])cc1 [#1145, 4- Methylpyridine N-oxide] |  |  |  |  |  |  |  |  | 1.5073 | 7.3 | 0.059 | 
CCCC[n+]1ccccc1.[Cl-] [#0415, 1-Butyl-pyridinium chloride] |  |  |  |  |  |  |  |  |  | 5.5 | 0.055 | RI ([3]; Table 3, chemical conc. 90 wt %): 1.4824
CN(C)CCSC(=N)N [#0830, S-[2-(Dimethyl-amino)ethyl] isothiourea-dihydrochloride] |  |  |  |  |  |  |  |  | 1.5021 | 5.4 | 0.047 | 
NCCN1CCNCC1 [#0338, N-(2-Aminoethyl) piperazine] |  |  |  |  |  |  |  |  |  | 12.4 | 0.062 | RI ([3]; Table 3, chemical conc. 75 wt %): 1.4794
NCCCNCCCN [#0785, 3,3′-Diamino-dipropylamine] |  | 2.09 | 1.48 |  |  |  |  |  |  |  |  | RI ([3]; Table 3, chemical conc. 100 wt %): 1.4895; Fluorescence quench Average (Serius): 0.62
Cc1cccc(C)c1NC1=NCCCS1.Cl [#1612, Xylazine hydrochloride] |  |  |  |  |  |  |  |  | 1.4956 |  |  | 
CN(C)CCSSCCN(C)C [#0299, Bis(2-dimethyl-aminoethyl) disulfide dihydrochloride] |  |  |  |  |  |  |  |  | 1.4937 |  |  | 
CNCC(O)c1cccc(O)c1.Cl (racemic) [#1142, DL- Phenylephrine hydrochloride] |  |  |  |  |  |  |  |  |  |  |  | RI [3]: 1.4954
CCN(CC)C(=O)c1cccnc1 [#0609, N,N-Diethyl- nicotinamide] |  |  |  |  |  |  |  |  |  | 6.4 | 0.056 | RI [3, 5]: 1.4928
Cc1ccc(C(=O)C(C)CN2CCCCC2)cc1.Cl (stereo not drawn) [#1392, Tolperisone hydrochloride] |  |  |  |  |  |  |  |  | 1.4939 | 5.2 | 0.056 | 
CN(C)C(=N)N(C)C [#1444, 1,1,3,3-Tetramethylguanidine] | 0.124 | 1.38 | 1.15 | 12.4 | 12.4 | 0.072 | 0.072 | 0.14 |  |  |  | 
[O-][n+]1ccccc1 [#1078, Pyridine N- oxide] |  |  |  |  |  |  |  |  |  | 6.1 | 0.054 | RI ([3]; Table 3, chemical conc. 60 wt %): 1.4795
NCC1CCC(CN)CC1 (stereo not drawn) [#0071, 1,4-Bis(aminomethyl) cyclohexane] | 0.318 | 3.25 | 1.90 | 13.3 | 13.3 | 0.054 | 0.054 | 0.56 |  |  |  | pH (Table 4): 13.27
NCC1CCCC(CN)C1 (stereo not drawn) [#0070, 1,3-Bis(aminomethyl) cyclohexane] | 0.286 | 3.15 | 1.91 | 13.0 | 13.0 | 0.079 | 0.079 | 0.62 |  |  |  | 
Decyldimethyl(3- sulfopropyl)ammonium [#0651] |  | 3.73 | 3.28 | 7.5 | 7.5 | 0.048 | 0.048 | 0.97 |  |  |  | retention of fluorescence of a fluorescent protein (EGFP): allows fluorescence of a fluorescent protein to be retained
CCCC[n+]1ccccc1.[Br-] [#0315, 1-Butyl-pyridinium bromide] |  |  |  |  |  |  |  |  |  | 5.6 | 0.048 | RI ([3]; Table 3, chemical conc. 85 wt %): 1.5090
CC(C)NCCCN [#1027, N-Isopropyl-1,3-diaminopropane] | 0.219 | 1.52 | 1.24 | 13.4 | 13.4 | 0.061 | 0.061 | 0.55 |  |  |  | 
NCc1cccnc1 [#1102, 3-Picolylamine] |  | 2.46 | 1.32 |  | 11.6 | 0.056 |  | 0.77 | 1.4895 | 11.6 | 0.056 | 
CCCC[N+](CCCC)(CCCC)Cc1ccccc1.[Cl-] [#0307, Benzyltributyl- ammonium chloride] |  |  |  |  |  |  |  |  |  |  |  | RI [3, 5]: 1.4939
CN(C)C(=O)Oc1cccc([N+](C)(C)C)c1 [#0864, Neostigmine bromide] |  |  |  |  |  |  |  |  | 1.4830 |  |  | 2nd quenching assay EGFP fluorescence (EGFP): quench free; retention of fluorescence of a fluorescent protein (EGFP): allowing retention of fluorescence of a fluorescent protein
